# Results taken from patent US3948899A, “α-Cyanobenzylpiperazines and a process for producing the same” (Fuji Chemical Industry Co., Ltd., priority 1973, dated 1976).
# Assays:
# mongrel adult dogs [1] = assay: Effects on arterial mean blood pressure (thoractomized anesthetized dogs, i.v.); format: in vivo, dog
# Procedure: (§1) All experiments were conducted on male and female thoractomized mongrel adult dogs weighing about 10 Kg under anesthesia with pentobarbital sodium.
# (§2) Arterial blood pressure was measured by pressure transducer (Nippon Koden MPU-0.5) connected with the cannula inserted from exposed carotid artery into aorta. Aortic blood flow was determined by means of electromagnetic flow meter (Nippon Koden MF-5) mounted at an origin of aorta. Coronary sinus out flow and coronary sinus oxygen tension were assessed by means of electromagnetic flow meter (Nippon Koden MF-5) and Po2 Macro electrode (Beckmann Moder 160-C), respectively, using Morawitz cannulization technique. Heart rate was measured by cardiotachometer (Nippon Koden RT-2) synchronized with systolic blood pressure of aorta.
# mongrel adult dogs [2] = assay: Effects on aortic blood flow (thoractomized anesthetized dogs, i.v.); format: in vivo, dog
# Procedure: as §1, §2
# mongrel adult dogs [3] = assay: Effects on coronary sinus out flow (thoractomized anesthetized dogs, i.v.); format: in vivo, dog
# Procedure: as §1, §2
# mongrel adult dogs [4] = assay: Effects on coronary sinus oxygen tension (thoractomized anesthetized dogs, i.v.); format: in vivo, dog
# Procedure: as §1, §2
# mongrel adult dogs [5] = assay: Effects on heart rate (thoractomized anesthetized dogs, i.v.); format: in vivo, dog
# Procedure: as §1, §2
# mongrel adult dogs [6] = assay: Effects on the work done by the left ventricle (thoractomized anesthetized dogs, i.v.); format: in vivo, dog
# Procedure: as §1, §2
# The work done by the left ventricle is calculated according to the following equation: […]
# [7] = Acute toxicity (LD50; per os, mice); format: in vivo; conditions: mouse, in vivo, po, dd-0train male mice
# Procedure: (§3) 7. Acute Toxicity (See Table 7) Acute toxicity (LD50; per os, mice) was measured in dd-0train male mice.
# dd-0train male mice = assay: Acute toxicity (LD50; per os, mice); format: in vivo
# Procedure: as §3
structure (smiles),measurement,setting,value
"CCOC(=O)N1CCN(C(C#N)c2ccc(OC)c(OC)c2)CC1 (stereo not drawn) [Compound B-01, N-(α-cyano-3,4-dimethoxybenzyl)-N'-ethoxycarbonyl piperazine]","Changes(%) of basal values, arterial mean blood pressure","mongrel adult dogs [1]; i.v. 2.0 mg/Kg, 15 min",-4.5%
same,"Changes(%) of basal values, arterial mean blood pressure","mongrel adult dogs [1]; i.v. 2.0 mg/Kg, 25 min",-4.0%
same,"Changes(%) of basal values, arterial mean blood pressure","mongrel adult dogs [1]; i.v. 6.0 mg/Kg, 15 min",-6.3%
same,"Changes(%) of basal values, arterial mean blood pressure","mongrel adult dogs [1]; i.v. 6.0 mg/Kg, 25 min",-3.0%
same,"Changes(%) of basal values, arterial mean blood pressure","mongrel adult dogs [1]; i.v. 20.0 mg/Kg, 15 min",-17.7%
same,"Changes(%) of basal values, arterial mean blood pressure","mongrel adult dogs [1]; i.v. 20.0 mg/Kg, 25 min",-17.4%
same,Duration of hypotensive effect (in words),"mongrel adult dogs [1]; i.v., dogs",longer duration
same,Effect on arterial mean blood pressure (in words),"mongrel adult dogs [1]; i.v., dogs",hypotensive effects
same,"Changes(%) of basal values, aortic blood flow","mongrel adult dogs [2]; i.v. 2.0 mg/Kg, 15 min",+2.0%
same,"Changes(%) of basal values, aortic blood flow","mongrel adult dogs [2]; i.v. 2.0 mg/Kg, 25 min",+1.0%
same,"Changes(%) of basal values, aortic blood flow","mongrel adult dogs [2]; i.v. 6.0 mg/Kg, 15 min",+0.1%
same,"Changes(%) of basal values, aortic blood flow","mongrel adult dogs [2]; i.v. 6.0 mg/Kg, 25 min",+1.0%
same,"Changes(%) of basal values, aortic blood flow","mongrel adult dogs [2]; i.v. 20.0 mg/Kg, 15 min",+3.6%
same,"Changes(%) of basal values, aortic blood flow","mongrel adult dogs [2]; i.v. 20.0 mg/Kg, 25 min",+1.6%
same,Increase of aortic blood flow,"mongrel adult dogs [2]; i.v., dogs",2-8%
same,Later effect on aortic blood flow / its duration (in words),"mongrel adult dogs [2]; i.v., dogs",longer duration
same,Effect on aortic blood flow immediately after administration (in words),"mongrel adult dogs [2]; i.v., dogs, immediately",no decrease in blood flow immediately after medication
same,"Changes(%) of basal values, coronery sinus out flow","mongrel adult dogs [3]; i.v. 2.0 mg/Kg, 15 min",+4.4%
same,"Changes(%) of basal values, coronery sinus out flow","mongrel adult dogs [3]; i.v. 2.0 mg/Kg, 25 min",+3.0%
same,"Changes(%) of basal values, coronery sinus out flow","mongrel adult dogs [3]; i.v. 6.0 mg/Kg, 15 min",+10.9%
same,"Changes(%) of basal values, coronery sinus out flow","mongrel adult dogs [3]; i.v. 6.0 mg/Kg, 25 min",+8.0%
same,"Changes(%) of basal values, coronery sinus out flow","mongrel adult dogs [3]; i.v. 20.0 mg/Kg, 15 min",+38.2%
same,"Changes(%) of basal values, coronery sinus out flow","mongrel adult dogs [3]; i.v. 20.0 mg/Kg, 25 min",+20.3%
same,Dose dependence and duration of effect on coronary sinus out flow (in words),"mongrel adult dogs [3]; i.v., dogs",proportioned to doses and of longer duration
same,Effect on coronary sinus out flow (in words),"mongrel adult dogs [3]; i.v., dogs",marked increasing effect on coronary sinus out flow
same,"Changes(%) of basal values, coronary sinus oxygen tension","mongrel adult dogs [4]; i.v. 2.0 mg/Kg, 15 min",+12.0%
same,"Changes(%) of basal values, coronary sinus oxygen tension","mongrel adult dogs [4]; i.v. 2.0 mg/Kg, 25 min",+12.5%
same,"Changes(%) of basal values, coronary sinus oxygen tension","mongrel adult dogs [4]; i.v. 6.0 mg/Kg, 10 min",+3.0%
same,"Changes(%) of basal values, coronary sinus oxygen tension","mongrel adult dogs [4]; i.v. 6.0 mg/Kg, 15 min",+25.5%
same,"Changes(%) of basal values, coronary sinus oxygen tension","mongrel adult dogs [4]; i.v. 6.0 mg/Kg, 25 min",+16.2%
same,"Changes(%) of basal values, coronary sinus oxygen tension","mongrel adult dogs [4]; i.v. 20.0 mg/Kg, 5 min",+89.0%
same,"Changes(%) of basal values, coronary sinus oxygen tension","mongrel adult dogs [4]; i.v. 20.0 mg/Kg, 15 min",+90.1%
same,"Changes(%) of basal values, coronary sinus oxygen tension","mongrel adult dogs [4]; i.v. 20.0 mg/Kg, 25 min",+63.0%
same,Duration of effect on coronary sinus oxygen tension (in words),"mongrel adult dogs [4]; i.v., dogs",proportioned to an increase in coronary sinus out flow and of longer duration
same,Effect on coronary sinus oxygen tension (in words),"mongrel adult dogs [4]; i.v., dogs",significant increase in coronary sinus oxygen tension
same,"Changes(%) of basal values, heart rate","mongrel adult dogs [5]; i.v. 2.0 mg/Kg, 15 min",0%
same,"Changes(%) of basal values, heart rate","mongrel adult dogs [5]; i.v. 2.0 mg/Kg, 25 min",0%
same,"Changes(%) of basal values, heart rate","mongrel adult dogs [5]; i.v. 6.0 mg/Kg, 15 min",+0.6%
same,"Changes(%) of basal values, heart rate","mongrel adult dogs [5]; i.v. 6.0 mg/Kg, 25 min",+1.0%
same,"Changes(%) of basal values, heart rate","mongrel adult dogs [5]; i.v. 20.0 mg/Kg, 15 min",-2.6%
same,"Changes(%) of basal values, heart rate","mongrel adult dogs [5]; i.v. 20.0 mg/Kg, 25 min",-6.3%
same,Effect on heart rate (in words),"mongrel adult dogs [5]; i.v., dogs",sight negative chromotropic effect
same,"Changes(%) of basal values, work of left ventricle","mongrel adult dogs [6]; i.v. 2.0 mg/Kg, 1 min",+2.7%
same,"Changes(%) of basal values, work of left ventricle","mongrel adult dogs [6]; i.v. 2.0 mg/Kg, 5 min",+0.8%
same,"Changes(%) of basal values, work of left ventricle","mongrel adult dogs [6]; i.v. 2.0 mg/Kg, 10 min",-2.0%
same,"Changes(%) of basal values, work of left ventricle","mongrel adult dogs [6]; i.v. 2.0 mg/Kg, 15 min",-2.6%
same,"Changes(%) of basal values, work of left ventricle","mongrel adult dogs [6]; i.v. 2.0 mg/Kg, 20 min",-2.9%
same,"Changes(%) of basal values, work of left ventricle","mongrel adult dogs [6]; i.v. 2.0 mg/Kg, 25 min",-3.1%
same,"Changes(%) of basal values, work of left ventricle","mongrel adult dogs [6]; i.v. 2.0 mg/Kg, 30 min",-3.6%
same,"Changes(%) of basal values, work of left ventricle","mongrel adult dogs [6]; i.v. 2.0 mg/Kg, imm.",-3.6%
same,"Changes(%) of basal values, work of left ventricle","mongrel adult dogs [6]; i.v. 6.0 mg/Kg, 1 min",+2.3%
same,"Changes(%) of basal values, work of left ventricle","mongrel adult dogs [6]; i.v. 6.0 mg/Kg, 5 min",-1.7%
same,"Changes(%) of basal values, work of left ventricle","mongrel adult dogs [6]; i.v. 6.0 mg/Kg, 10 min",-5.9%
same,"Changes(%) of basal values, work of left ventricle","mongrel adult dogs [6]; i.v. 6.0 mg/Kg, 15 min",-8.3%
same,"Changes(%) of basal values, work of left ventricle","mongrel adult dogs [6]; i.v. 6.0 mg/Kg, 20 min",-5.3%
same,"Changes(%) of basal values, work of left ventricle","mongrel adult dogs [6]; i.v. 6.0 mg/Kg, 25 min",-2.0%
same,"Changes(%) of basal values, work of left ventricle","mongrel adult dogs [6]; i.v. 6.0 mg/Kg, 30 min",-2.8%
same,"Changes(%) of basal values, work of left ventricle","mongrel adult dogs [6]; i.v. 6.0 mg/Kg, imm.",-0.1%
same,"Changes(%) of basal values, work of left ventricle","mongrel adult dogs [6]; i.v. 20.0 mg/Kg, 1 min",-10.9%
same,"Changes(%) of basal values, work of left ventricle","mongrel adult dogs [6]; i.v. 20.0 mg/Kg, 5 min",-8.4%
same,"Changes(%) of basal values, work of left ventricle","mongrel adult dogs [6]; i.v. 20.0 mg/Kg, 10 min",-9.2%
same,"Changes(%) of basal values, work of left ventricle","mongrel adult dogs [6]; i.v. 20.0 mg/Kg, 15 min",-14.8%
same,"Changes(%) of basal values, work of left ventricle","mongrel adult dogs [6]; i.v. 20.0 mg/Kg, 20 min",-14.3%
same,"Changes(%) of basal values, work of left ventricle","mongrel adult dogs [6]; i.v. 20.0 mg/Kg, 25 min",-16.1%
same,"Changes(%) of basal values, work of left ventricle","mongrel adult dogs [6]; i.v. 20.0 mg/Kg, 30 min",-14.1%
same,"Changes(%) of basal values, work of left ventricle","mongrel adult dogs [6]; i.v. 20.0 mg/Kg, imm.",-8.5%
same,Duration of effect on the work of the left ventricle (in words),"mongrel adult dogs [6]; i.v., dogs",longer duration
same,Effect on the work of the left ventricle (in words),"mongrel adult dogs [6]; i.v., dogs",decrease in the work of the left ventricle
same,LD50,[7],2200 mg/kg
same,LD50,dd-0train male mice; dd-0train male mice,2200 mg/kg
same,Acute toxicity relative to Vastarel F (in words),dd-0train male mice; mice,significantly less toxicity than that of Vastarel F
